Measurements taken from US20240335429A1, “MOLECULAR GLUE AND SALL4 DEGRADER” (National University of Singapore, priority 2021, published 2024).

Columns and labels:
[1] = CellTiter-Glo viability assay, SALL4-low cell panel; type: cell-based, human; conditions: human, SNU-387, SNU-449, SNU-475 and H1299 cells (SALL4-low); SALL4-low cells, highest dose 30 μM, 72 h; read-out: cells remained viable
Protocol: (§1) Cells were plated in RPMI culture media (40 μL) in 384-well white, flat-bottom plates (Corning) and incubated at 37° C. in a humidified atmosphere of 5% CO2 overnight. The numbers of cells per well were 1,500 for SNU-398 and SNU-182, 750 for SNU-387, SNU-449, SNU-475 and SNU-423, and 1,000 for H661 and H1299. After overnight incubation, 10 μL of drug (1% DMSO in RPMI) at designed concentrations were added to the cells. The cells were then incubated for 16, 24, 48, 72, or 96 h at 37° C. in a humidified atmosphere of 5% CO2 before CellTiter-Glo reagent (10 μL) was dispensed to the wells. The cells were incubated at room temperature for a minimum of 10 min. After that, luminescence readings were recorded by a Microplate Reader (PHERAstar or Tecan Infinite M200 Pro) according to the manufacturer's instruction for measuring the luminescence.

[2] = tested on: SNU-387, SNU-449, SNU-475, and H1299 cells; assay: as above; type: cell-based, human; conditions: 72 h cell viability panel of HCC and lung cancer cell lines
Protocol: as §1

CRBN = molecular target: T1, CRBN (Homo sapiens, UniProt Q96SW2); assay: Cellular Thermal Shift Assay (CETSA) in SNU-398 cell lysates; type: binding; conditions: from 51 to 56° C., read-out: overall thermal shift of CRBN
T1 construct: endogenous in cells; host or cells: SNU-398 cell lysate
T1 sequence (Q96SW2 whole entry): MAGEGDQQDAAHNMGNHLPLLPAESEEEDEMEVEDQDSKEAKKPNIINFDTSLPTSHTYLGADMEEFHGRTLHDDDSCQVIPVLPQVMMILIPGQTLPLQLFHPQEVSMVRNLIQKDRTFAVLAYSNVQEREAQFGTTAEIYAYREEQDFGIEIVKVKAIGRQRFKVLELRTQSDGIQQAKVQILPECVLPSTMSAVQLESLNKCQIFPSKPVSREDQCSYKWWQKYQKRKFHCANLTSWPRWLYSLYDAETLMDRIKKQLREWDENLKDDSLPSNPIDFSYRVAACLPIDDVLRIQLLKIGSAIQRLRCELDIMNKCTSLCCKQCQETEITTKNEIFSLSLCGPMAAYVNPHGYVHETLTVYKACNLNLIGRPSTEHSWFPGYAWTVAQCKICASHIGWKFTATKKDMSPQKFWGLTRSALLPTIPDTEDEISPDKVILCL
Protocol: Cells were washed with cold PBS and harvested into 50 mL tubes and centrifuged at 1,200×g for 5 min. For cell lysis, cells were resuspended in 1× NP-40 lysis buffer containing 10 mM Tris-HCl (pH 7.4), 150 mM NaCl, 2.7 mM KCl and 0.4% NP-40, and rotated end-over-end at 4° C. for 30 min. The cell lysate was centrifuged at 20,000 rpm for 10 min at 4° C. and the supernatant was collected. The cell lysate was divided into two aliquots, with one aliquot being treated with QE-18-WG07, and the other aliquot with DMSO control. After specific incubation time at room temperature, the respective lysates were divided into smaller aliquots of 40 μL and heated individually at different temperatures (51-56° C.) for 3 min in a thermal cycler, followed by a 3-min cool-down at room temperature. The heated lysates were centrifuged at 15,000 rpm for 10 min at 4° C. to separate the soluble fractions from the precipitates. The supernatants were transferred to new microtubes and analyzed by SDS-PAGE, followed by western blot analysis described in Example 4. The integrated band intensities were quantified by ImageJ. The thermal curves were analyzed by nonlinear regression using Graph Pad Prism.

IKZF3 = molecular target: T2, IKZF3 (Homo sapiens, UniProt Q9UKT9); assay: Immunoblot of IKZF3 in SNU-398 HCC cells; type: cell-based; conditions: SNU-398 cells
T2 construct: with immunoblots in SNU-398 HCC cells; endogenous in cells; host or cells: SNU-398 HCC cells
T2 sequence (Q9UKT9 whole entry): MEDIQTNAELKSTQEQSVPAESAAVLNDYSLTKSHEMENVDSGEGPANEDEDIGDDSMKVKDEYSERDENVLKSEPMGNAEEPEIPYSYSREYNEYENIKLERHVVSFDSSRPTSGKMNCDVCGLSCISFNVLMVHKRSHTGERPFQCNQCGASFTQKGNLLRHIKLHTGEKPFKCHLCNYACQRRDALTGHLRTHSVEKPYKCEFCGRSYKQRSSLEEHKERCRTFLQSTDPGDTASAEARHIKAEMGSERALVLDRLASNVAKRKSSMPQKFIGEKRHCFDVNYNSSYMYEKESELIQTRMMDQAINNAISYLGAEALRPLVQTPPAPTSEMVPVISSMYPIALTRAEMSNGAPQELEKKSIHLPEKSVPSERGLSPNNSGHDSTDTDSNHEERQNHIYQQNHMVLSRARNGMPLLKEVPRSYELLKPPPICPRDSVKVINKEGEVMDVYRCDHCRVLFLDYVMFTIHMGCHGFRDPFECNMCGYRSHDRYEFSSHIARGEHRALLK
Protocol: RIPA buffer containing freshly added protease inhibitors (2 mM PMSF) and protease inhibitor cocktail was used for cell lysis. The lysed cells were incubated for 10 min on ice and subsequently centrifuged at 4° C. for 10 min at 14,000 rpm. The protein concentrations of cell lysates were assessed using Bradford Assay as per manufacturer's instructions. The samples were denatured using 4× Sample buffer at 95° C. for 5 min. The samples were size resolved using polyacrylamide gel (8%) and Mini-PROTEAN Tetra Cell module. The size-resolved proteins were transferred onto PVDF via electroblotting using Mini Trans-Blot® module. The membrane was blocked using 5% BSA in TBST. The membrane was incubated with appropriate primary antibody (overnight) and secondary antibody (1 h). Immobilon Crescendo Western HRP substrate was used for signal development and images were acquired using darkroom development techniques.

COc1ccccc1NC(=O)Nc1ccc([N+](=O)[O-])cc1O [QE-18-WG07]
viability at 72 h, 30 μM [1]: 30 to 60%
selectivity of anti-proliferative effect, SALL4-high over SALL4-low cancer cells [2]: up to 58 fold
ΔTm at 50 µM (CRBN): ≤ 5 °C
degradation of IKZF3 (IKZF3): did not degrade
